{
  "source": "patent US7138361B2",
  "about": "“Herbicidal heterocycles” (E. I. du Pont de Nemours and Company, priority 2000, dated 2006)",
  "assay_in_all_cases": "Test D greenhouse paddy-water test in rice",
  "format_in_all_cases": "in vivo",
  "settings_in_all_cases": "500 g/ha alone, 21 days, 0-100 scale",
  "key": {"[1]": {"system": "Alisma plantago-aquatica (Ap)", "from_the_text": "(§1) Four plastic pots (ca. 16-cm diameter) per rate were partially filled with sterilized Tama silt loam soil comprised of a 35:50:15 ratio of sand, silt and clay and 2.6% organic matter. Separate plantings for each of the four pots were as follows. Seeds from the U.S. of Heteranthera limosa (Hl), Monochoria vaginalis (Mv), Ammania auriculata (Aa), and Sphenoclea zeylanica (Sz) were planted into one 16-cm pot for each rate. Seeds from the U.S. of Cyperus iria (Ci), Leptochloa fascicularis (Li), one stand of 9 or 10 direct-seeded rice seedlings (Oryza saliva cv. ‘Japonica—M202’; Oss), and one stand of 6 transplanted rice seedlings (Oryza sativa cv. ‘Japonica—M202’; Ost) were planted into one 16-cm pot for each rate. Seeds from the U.S. of Cyperus difformis (Cd), Alisma plantago-aquatica (Ap), and Scirpus mucronatus (Sm) were planted into one 16-cm pot for each rate. Seeds from the U.S. of Echinochloa crus-galli (Ecg), Echinochloa oryzicola (Eor), Echinochloa oryzoides (Eoz) and Echinochloa colonum (Ecc) were planted into one 16-cm pot for each rate. Plantings were sequential so that crop and weed species were at the 2.0 to 2.5-leaf stage at time of treatment.\n(§2) Potted plants were grown in a greenhouse with day/night temperature settings of 29.5/26.7° C., and supplemental balanced lighting was provided to maintain a 16-hour photoperiod. Test pots were maintained in the greenhouse until test completion.\n(§3) Chemical treatments consisting of Compound 1 of Index Table A (Cmpd 1), daimuron (Cmpd D), quinoclamine (Cmpd Q) and combinations thereof were formulated in acetone. At time of treatment, test pots were flooded to 3 cm above the soil surface, treated by application of test compounds directly to the paddy water, and then maintained at that water depth for the duration of the test. Effects of treatments on rice and weeds were visually evaluated by comparison to untreated controls after 21 days. Plant response ratings are reported on a 0 to 100 scale; where 0 is no effect and 100 is complete control. ND means no data.\n(§4) Colby's equation was used to calculate the expected additive herbicidal effect of the mixtures of Compound 1 with daimuron (Cmpd D) and quinoclamine (Cmpd Q). Colby's equation (Colby, S. R “Calculating Synergistic and Antagonistic Responses of Herbicide Combinations,” Weeds, 15(1), pp 20–22 (1967)) calculates the expected additive effect of herbicidal mixtures, and for two active ingredients is of the form: Pa+b=Pa+Pb−(PaPb/100) wherein Pa+b is the percentage effect of the mixture expected from additive contribution of the individual components, • Pa is the observed percentage effect of the first active ingredient at the same use rate as in the mixture, and • Pb is the observed percentage effect of the second active ingredient at the same use rate as in the mixture."}, "[2]": {"system": "Monochoria vaginalis (Mv)", "from_the_text": "as §1, §2, §3, §4"}, "[3]": {"system": "Cyperus iria (Ci)", "from_the_text": "as §1, §2, §3, §4"}, "[4]": {"system": "direct-seeded rice seedlings (Oryza saliva cv. 'Japonica—M202'; Oss)", "from_the_text": "as §1, §2, §3, §4"}, "[5]": {"system": "Echinochloa oryzicola (Eor)", "from_the_text": "as §1, §2, §3, §4"}, "[6]": {"system": "Echinochloa oryzoides (Eoz)", "from_the_text": "as §1, §2, §3, §4"}, "[7]": {"system": "Heteranthera limosa (Hl)", "from_the_text": "as §1, §2, §3, §4"}, "[8]": {"system": "Echinochloa crus-galli (Ecg)", "from_the_text": "as §1, §2, §3, §4"}, "[9]": {"system": "Leptochloa fascicularis (Li)", "from_the_text": "as §1, §2, §3, §4"}, "[10]": {"system": "Cyperus difformis (Cd)", "from_the_text": "as §1, §2, §3, §4"}, "[11]": {"system": "Ammania auriculata (Aa)", "from_the_text": "as §1, §2, §3, §4"}, "[12]": {"system": "transplanted rice seedlings (Oryza sativa cv. 'Japonica—M202'; Ost)", "from_the_text": "as §1, §2, §3, §4"}, "[13]": {"system": "Sphenoclea zeylanica (Sz)", "from_the_text": "as §1, §2, §3, §4"}, "[14]": {"system": "Echinochloa colonum (Ecc)", "from_the_text": "as §1, §2, §3, §4"}, "[15]": {"system": "Scirpus mucronatus (Sm)", "from_the_text": "as §1, §2, §3, §4"}},
  "data": [
    {"smiles": "Cc1ccc(NC(=O)NC(C)(C)c2ccccc2)cc1", "note": "[daimuron, reference compound]", "values": [
      {"measurement": "Obs. (observed effect) Ap", "setting": "[1]", "value": 0},
      {"measurement": "Obs. (observed effect) Mv", "setting": "[2]", "value": 30},
      {"measurement": "Obs. (observed effect) Ci", "setting": "[3]", "value": 0},
      {"measurement": "Obs. (observed effect) Oss", "setting": "[4]", "value": 0},
      {"measurement": "Obs. (observed effect) Eor", "setting": "[5]", "value": 0},
      {"measurement": "Obs. (observed effect) Eoz", "setting": "[6]", "value": 0},
      {"measurement": "Obs. (observed effect) Hl", "setting": "[7]", "value": 30},
      {"measurement": "Obs. (observed effect) Ecg", "setting": "[8]", "value": 0},
      {"measurement": "Obs. (observed effect) Lf", "setting": "[9]", "value": 0},
      {"measurement": "Obs. (observed effect) Cd", "setting": "[10]", "value": 60},
      {"measurement": "Obs. (observed effect) Aa", "setting": "[11]", "value": 0},
      {"measurement": "Obs. (observed effect) Ost", "setting": "[12]", "value": 0},
      {"measurement": "Obs. (observed effect) Sz", "setting": "[13]", "value": 20},
      {"measurement": "Obs. (observed effect) Ecc", "setting": "[14]", "value": 0}
    ]},
    {"smiles": "NC1=C(Cl)C(=O)c2ccccc2C1=O", "note": "[quinoclamine, reference compound]", "values": [
      {"measurement": "Obs. (observed effect) Ap", "setting": "[1]", "value": 60},
      {"measurement": "Obs. (observed effect) Mv", "setting": "[2]", "value": 0},
      {"measurement": "Obs. (observed effect) Ci", "setting": "[3]", "value": 0},
      {"measurement": "Obs. (observed effect) Oss", "setting": "[4]", "value": 0},
      {"measurement": "Obs. (observed effect) Sm", "setting": "[15]", "value": 0},
      {"measurement": "Obs. (observed effect) Eor", "setting": "[5]", "value": 30},
      {"measurement": "Obs. (observed effect) Eoz", "setting": "[6]", "value": 0},
      {"measurement": "Obs. (observed effect) Hl", "setting": "[7]", "value": 0},
      {"measurement": "Obs. (observed effect) Ecg", "setting": "[8]", "value": 0},
      {"measurement": "Obs. (observed effect) Lf", "setting": "[9]", "value": 0},
      {"measurement": "Obs. (observed effect) Cd", "setting": "[10]", "value": 35},
      {"measurement": "Obs. (observed effect) Aa", "setting": "[11]", "value": 0},
      {"measurement": "Obs. (observed effect) Ost", "setting": "[12]", "value": 0},
      {"measurement": "Obs. (observed effect) Sz", "setting": "[13]", "value": 0},
      {"measurement": "Obs. (observed effect) Ecc", "setting": "[14]", "value": 0}
    ]}
  ]
}
